Source: patent US20240116939A1, “CHIRAL OR RACEMIC PYRIMIDINE-FUSED DIAZEPINONE DERIVATIVES, PREPARATION METHOD, AND APPLICATION THEREOF” (SUN YAT-SEN UNIVERSITY, priority 2021, published 2024)

Key:
PC12 cells [1] = experiment: MTT cell viability of corticosterone (CORT)-induced PC12 cells (in vitro depression model); details: for viability at 0.625 µM: PC-12, read-out: Cell viability (%), PC12 cells pretreated with 600 μM corticosterone 24 h; for viability at 0.625 µM / Culture time needed to exert effect on cell survival / Cell viability (%): drug 0.625 uM; for viability at 0.625 µM / Cell viability (%): 24 h culture, average of three independent experiments; for viability at 0.625 µM / Effect on death rate of cells caused by CORT (cell survival rate) / Cell viability (%): MTT; for Effect on death rate of cells caused by CORT (cell survival rate): 0.625-20 uM at 12 h, 0.625 uM at 12, 24, 48 h, A and B of FIG. 2; for Culture time needed to exert effect on cell survival: B of FIG. 2; for Cell viability (%): PC12 cells pretreated with 600 μM corticosterone 24 h
Experimental: PC12 cells are purchased from Procell Life Science & Technology Co., Ltd. (Wuhan, China). All cell culture reagents are purchased from Life Technologies (Grand Island, Nebraska, USA). Cells are cultured in Dulbecco's modified Eagle's medium (Gibco, USA) including 10% fetal calf serum (Gibco, USA) at 37° C. in an incubator including 5% CO2.
Corticosterone (CORT)-induced PC12 cells are usually used to establish the depression model in vitro.
Cell viability is measured by using MTT [3-(4,5-dimethyl-2-thiazolyl)-2,5-diphenyl-2H-tetrazolium bromide].

PC12 cells [2] = experiment: Hoechst and PI staining of PC12 cell apoptosis; assay type: cell-based; details: drug 1.0 uM, 48 hours
Experimental: PC12 cell apoptosis is detected by Hoechst and PI staining. Hoechst can bind to cell nucleus of living cells, while PI (propidium iodide) can bind to the nucleuses of dead cells. The PC12 cells are plated in 12-well plates, and after being treated with drugs for 48 hours, the PC12 cells are stained with the nuclear dye Hoechst. The PC12 cells are washed twice with PBS and continued to be incubated with 10 mg/L Hoechst in the incubator for 20 min, For PI staining, the PC12 cells are incubated with a working solution including PI (final concentration 1 μg/mL) at room temperature for 10 min […] The PC12 cells are observed and photographed by a fluorescence microscope (Zeiss, Germany), and the results are shown in FIGS. 2 and 3. Blue fluorescence (white background) represents living cells, and red fluorescence (black background) represents dead cells.

cofilin-1 = experiment: Western blotting of cofilin-1 in CORT-treated PC12 cells; assay type: cell-based; details: Western blot; 0.625 uM; A and B of FIG. 3
Experimental: (§1) PC12 cells are lysed in RIPA lysis solution including 1% phenylmethylsulfonyl fluoride (PMSF) on ice for 30 minutes, the supernatant solution is collected and centrifuged, and the protein concentration of the supernatant solution is measured by a BCA assay kit (Beyotime, Shanghai). Protein samples are loaded onto 10% SDS-polyacrylamide gel electrophoresis and then further transferred to PVDF membrane (Millipore, MA, USA). The PVDF membrane is blocked with 5% non-fat milk and then incubated with a single primary antibody at 4° C. overnight. After washing with Tris-buffered saline containing Tween-20 (0.1%) (TBST), the PVDF membrane is incubated with secondary antibodies at room temperature. The PVDF membrane is analyzed by ECL reagents (Beyotime, Shanghai) and a BIO-RAD ChemiDoc XRS system. Protein band intensity is performed by Image J software (The National Institutes of Health, Bethesda, MD, USA).

GR = experiment: Western blotting of GR in CORT-treated PC12 cells; assay type: cell-based; details: Western blot; 0.625 uM; A and B of FIG. 3
Experimental: as §1

NF-κB = experiment: Western blotting of NF-κB in CORT-treated PC12 cells; assay type: cell-based; details: Western blot; 0.625 uM; A and B of FIG. 3
Experimental: as §1

Compound | viability at 0.625 µM (PC12 cells [1]; Rattus norvegicus) [%] | melting point [°C] | PC12 cell death / apoptosis caused by corticosterone (blue and red fluorescence number) (PC12 cells [2]) | also measured
C=C[C@H]1CN(Cc2ccccc2)C(=O)c2cnc(-c3cccc4ccccc34)nc2N1c1ccccc1 [(S)-I-14, (S)-6-benzyl-2-(1-naphthyl)-9-phenyl-8-vinyl-6,7,8,9-tetrahydro-5H-pyrimido[4,5-e][1,4]diazepin-5-one] | 88.1 ± 4.7 | 227.2 to 227.4 |  | Survival rate of PC12 cells, comparison of chiral configurations (PC12 cells [1]; 0.625 uM, B, C and D of FIG. 4): can increase the survival rate better than their corresponding racemates
C=C[C@@H]1CN(Cc2ccccc2)C(=O)c2cnc(Nc3ccccc3)nc2N1c1ccccc1 [(R)-I-18, (R)-6-benzyl-9-phenyl-2-anilino-8-vinyl-6,7,8,9-tetrahydro-5H-pyrimido[4,5-e][1,4]diazepine-5-one] | 75.2 ± 4.4 | 232.1 to 232.3 |  | 
C=C[C@H]1CN(Cc2ccccc2)C(=O)c2cnc(C)nc2N1c1ccccc1 [(S)-I-10, (S)-6-benzyl-2-methyl-9-phenyl-8-vinyl-6,7,8,9-tetrahydro-5H-pyrimido[4,5-e][1,4]diazepin-5-one] | 97.8 ± 3.4 |  | higher number of blue fluorescence than (R)-I-9 | 
C[C@]12C[C@H](O)[C@H]3[C@@H](CCC4=CC(=O)CC[C@@]43C)[C@@H]1CC[C@@H]2C(=O)CO [CORT, corticosterone, reference compound] |  |  |  | Cell viability (%) with corticosterone alone (PC12 cells [1]; PC12 cells, 600 μM corticosterone, 24 hours, no drug (model group)): 60.5 ± 3.6%; viability at 600 µM (PC12 cells [1]; Rattus norvegicus, PC-12, 24 h, read-out: Cell viability (%) with corticosterone alone, PC12 cells, 600 μM corticosterone, 24 hours, no drug (model group)): 60%
C=C[C@H]1CN(Cc2ccccc2)C(=O)c2cnc(N3CCN(C)CC3)nc2N1c1ccccc1 [(S)-I-11, (S)-6-benzyl-2-(4-methyl-1-piperazinyl)-9-phenyl-8-vinyl-6,7,8,9-tetrahydro-5H-pyrimido[4,5-e]diazepine-5-one] |  |  | can reduce cell death | Effect on death rate of cells caused by CORT (cell survival rate) (PC12 cells [1]): can effectively reduce the death rate of cells caused by CORT; Culture time needed to exert effect on cell survival (PC12 cells [1]): 12 h
C=C[C@@H]1CN(Cc2ccccc2)C(=O)c2cnc(N3CCOCC3)nc2N1c1ccccc1 [(R)-I-1, (R)-6-benzyl-2-morpholino-9-phenyl-8-vinyl-6,7,8,9-tetrahydro-5H-pyrimido [4,5-e][1,4]diazapine-5-one] |  |  |  | Cell viability (%) (PC12 cells [1]): 82.8 ± 2.5%
CNCCC(Oc1ccc(C(F)(F)F)cc1)c1ccccc1 (stereo not drawn) [fluoxetine, reference compound] | 76.8 ± 6.4 |  | can reduce cell death | Overexpression of cofilin-1 (cofilin-1): inhibit the overexpression; Effect on death rate of cells caused by CORT (cell survival rate) (PC12 cells [1]): can effectively reduce the death rate of cells caused by CORT; Culture time needed to exert effect on cell survival (PC12 cells [1]): 48 h; Expression of GR (GR): promote the expression of GR
C=C[C@@H]1CN(Cc2ccccc2)C(=O)c2cnc(-c3ccco3)nc2N1c1ccccc1 [Compound I-16, (R)-6-benzyl-2-(2-furyl)-9-phenyl-8-vinyl-6,7,8,9-tetrahydro-5H-pyrimido[4,5-e][1,4]diazepin-5-one] |  | 178.5 to 178.6 |  | 
C=C[C@H]1CN(Cc2ccccc2)C(=O)c2cnc(-c3cnccc3OC)nc2N1c1ccccc1 [(S)-I-17, (S)-6-benzyl-2-(4-methoxy-3-pyridyl)-9-phenyl-8-vinyl-6,7,8,9-tetrahydro-5H-pyrimido[4,5-e][1,4]diazepin-5-one] | 96.9 ± 2.7 |  | can reverse the massive apoptosis of the PC12 cells caused by corticosterone | Overexpression of cofilin-1 (cofilin-1): inhibit the overexpression; Overexpression of NF-κB (NF-κB): inhibit the overexpression; Expression of GR (GR): promote the expression of GR
C=C[C@H]1CN(Cc2ccccc2)C(=O)c2cnc(N3CCOCC3)nc2N1CCC [(S)-I-5, (S)-6-benzyl-2-morpholino-9-propyl-8-vinyl-6,7,8,9-tetrahydro-5H-pyrimido[4,5-e][1,4]diazepine-5-one] | 89.4 ± 2.9 |  |  | 
C=C[C@H]1CN(Cc2ccccc2)C(=O)c2cnc(N3CCCC3)nc2N1c1ccccc1 [(S)-I-12, (S)6-benzyl-9-phenyl-2-(1-tetrahydropyrrolyl)-8-vinyl-6,7,8,9-tetrahydro-5H-pyrimido[4,5-e][1,4]diazepin-5-one] | 98.6 ± 3.1 | 153.8 to 154.3 |  | 
C=C[C@@H]1CN(Cc2ccccc2)C(=O)c2cnc(OC)nc2N1c1ccccc1 [(R)-I-9, (R)-6-benzyl-2methoxy-9-phenyl-8-vinyl-6,7,8,9-tetrahydro-5H-pyrimido[4,5-e][1,4]diazepin-5-one] | 85.4 ± 2.9 |  | can reverse the massive apoptosis of the PC12 cells caused by corticosterone | Overexpression of cofilin-1 (cofilin-1): inhibit the overexpression; Overexpression of NF-κB (NF-κB): inhibit the overexpression; Expression of GR (GR): promote the expression of GR
C=C[C@@H]1CN(Cc2ccccc2)C(=O)c2cnc(-c3ccccc3)nc2N1c1ccccc1 [(R)-I-13, (R)-6-benzyl-2,9-diphenyl-8-vinyl-6,7,8,9-tetrahydro-5H-pyrimido[4,5-e][1,4]diazepine-5-one] | 81.9 ± 4.5 | 212.7 to 213.6 |  | 
C=C[C@@H]1CN(Cc2ccccc2)C(=O)c2cnc(N3CCOCC3)nc2N1Cc1ccccc1 [(R)-I-8, (R)-6,9-dibenzyl-2-morpholinyl-8-vinyl-6,7,8,9-tetrahydro-5H-pyrimido[4,5-e][1.4]diazepine-5-one] |  |  |  | Cell viability (%) (PC12 cells [1]): 82.0 ± 2.0%
